For the test, the system named is primary rat mixed cortical cells. Description: In vitro myelination assay (MBP positive myelin strands, fold myelin pixels above background). As to conditions: Rattus norvegicus; for fold induction at 1 µM: 1.0 μM compound; for fold induction at 10 µM: 10.0 μM compound. The class given is cell-based. In short, it runs like this: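 Compounds at 1.0 and 10.0 μM were incubated 14 days with dissociated P1 rat cortical cells, which were then fixed and immunostained for MBP. Myelination was scored as fold MBP myelin pixels per well over the no-compound baseline.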

The mark [1] stands for this setting: relative to baseline of no added compound, read-out: Fold myelin pixels above background.
[2] abbreviates: read-out: Fold myelin pixels above background relative to baseline of no added compound.
The mark [3] stands for this setting: relative to baseline of no added compound, read-out: Fold myelin pixels above background, 1.0 μM.
The mark [4] stands for this setting: relative to baseline of no added compound, read-out: Fold myelin pixels above background, 10.0 μM.

Here are results for twelve compounds from patent publication US10766869B2, “Triazoles for the treatment of demyelinating dieases” (Vertex Pharmaceuticals Incorporated, priority 2015, dated 2020).

SMILES strings stand for the structures. Where two headings read alike, the source gives them in different places.

Take `Cc1cc(Nc2ncn(-c3cc(F)cc(F)c3)n2)cc(N2C[C@H]3C[C@@H]2CN3C)c1` [Compound 459, 1-(3,5-difluorophenyl)-N-[3-methyl-5-[(1R,4R)-5-methyl-2,5-diazabicyclo[2.2.1]heptan-2-yl]phenyl]-1,2,4-triazol-3-amine]: under setting [1], the fold induction at 1 µM was 10 to 100 and the fold induction at 10 µM is at most 1.
In the case of `Cc1cc(Nc2ncn(-c3cc(F)cc(F)c3)n2)cc(N2CCC(N3CCCC3)CC2)c1` [Compound 1038, 1-(3,5-difluorophenyl)-N-[3-methyl-5-(4-pyrrolidin-1-yl-1-piperidyl)phenyl]-1,2,4-triazol-3-amine], under setting [2], the fold induction at 1 µM was in the range of 1 to 10 and the fold induction at 10 µM lay in the range of 10 to 100.
Take `CCOC(=O)N1CCN(c2cc(C)cc(Nc3ncn(-c4cc(F)cc(F)c4)n3)c2)CC1` [Compound 196, ethyl 4-[3-[[1-(3,5-difluorophenyl)-1,2,4-triazol-3-yl]amino]-5-methyl-phenyl]piperazine-1-carboxylate]: under setting [3], the fold induction at 1 µM was at most 1. Also, the fold induction at 10 µM under setting [4] was at most 1.
`Fc1cc(F)cc(-n2cnc(Nc3cc(Br)cc(N4CCOCC4)c3)n2)c1` [Compound 346, N-(3-bromo-5-morpholino-phenyl)-1-(3,5-difluorophenyl)-1,2,4-triazol-3-amine]: under setting [3], the fold induction at 1 µM was 1000 to 10000. Also, the fold induction at 10 µM under setting [4] fell in the range of 1000 to 10000.
On to `Cc1cc(Nc2ncn(-c3cc(F)cc(F)c3)n2)cc(N2CCC[C@H]2CN2CCOCC2)c1` (single isomer, unassigned) [Compound 919], for which, under setting [2], the fold induction at 1 µM is 10 to 100 and the fold induction at 10 µM is at most 1.
As for `COC1CCN(C2CCN(c3cc(C)cc(Nc4ncn(-c5cc(F)cc(F)c5)n4)c3)CC2)CC1` [Compound 1068, 1-(3,5-difluorophenyl)-N-[3-[4-(4-methoxy-1-piperidyl)-1-piperidyl]-5-methyl-phenyl]-1,2,4-triazol-3-amine], under setting [2], the fold induction at 1 µM fell in the range of 10 to 100 and the fold induction at 10 µM fell in the range of 10 to 100.
Regarding `Cc1cc(NC[C@@]2(C)CCCO2)cc(Nc2ncn(-c3cc(F)cc(F)c3)n2)c1` (stereo in doubt) [Compound 490, N1-[1-(3,5-difluorophenyl)-1,2,4-triazol-3-yl]-5-methyl-N3-[(2-methyltetrahydrofuran-2-yl)methyl]benzene-1,3-diamine], under setting [1], the fold induction at 1 µM fell in the range of 10 to 100 and the fold induction at 10 µM lay in the range of 10 to 100.
Consider `Cc1cc(Nc2ncn(-c3ccccn3)n2)nc(N2CC(N3CCOCC3)C2)c1` [Compound 503, 4-methyl-6-(3-morpholinoazetidin-1-yl)-N-[1-(2-pyridyl)-1,2,4-triazol-3-yl]pyridin-2-amine], for which, under setting [1], the fold induction at 1 µM was in the range of 1 to 10 and the fold induction at 10 µM is at most 1.
For `Cc1cc(Nc2ncn(-c3ccc(F)cc3)n2)cc(N2CCN(C3COC3)CC2)c1` [Compound 622, 1-(4-fluorophenyl)-N-[3-methyl-5-[4-(oxetan-3-yl)piperazin-1-yl]phenyl]-1,2,4-triazol-3-amine], under setting [1], the fold induction at 1 µM fell in the range of 1 to 10 and the fold induction at 10 µM is 1 to 10.
Turning to `Cc1cc(Nc2ncn(-c3ccccc3Cl)n2)cc(N2CCN(C3COC3)CC2)c1` [Compound 446, 1-(2-chlorophenyl)-N-[3-methyl-5-[4-(oxetan-3-yl)piperazin-1-yl]phenyl]-1,2,4-triazol-3-amine], under setting [1], the fold induction at 1 µM fell in the range of 1 to 10 and the fold induction at 10 µM was 1000 to 10000.
On to `[2H]C1(N2CCN(c3cc(C)cc(Nc4ncn(-c5ccccc5)n4)c3)CC2)COC1` [Compound 898, N-[3-[4-(3-deuteriooxetan-3-yl)piperazin-1-yl]-5-methyl-phenyl]-1-phenyl-1,2,4-triazol-3-amine], for which, under setting [2], the fold induction at 1 µM was in the range of 10 to 100 and the fold induction at 10 µM was at most 1.
For `CN1CCN(c2cc(Nc3ncn(-c4ccnc(F)c4)n3)cc(C(F)(F)F)c2)CC1` [Compound 226, 1-(2-fluoro-4-pyridyl)-N-[3-(4-methylpiperazin-1-yl)-5-(trifluoromethyl)phenyl]-1,2,4-triazol-3-amine], under setting [3], the fold induction at 1 µM lay in the range of 100 to 1000. The fold induction at 10 µM under setting [4] was at most 1.
